Assay results as given in patent US8309140B2, “Effect of porcine sheath proteins on the regeneration activity of periodontal ligament” (priority 2005, dated 2012).
Entries after “also recorded” stand apart in the source; their conditions may differ.

How the values were obtained:
[1] = test system: human periodontal ligament (HPDL) cells; conditions: cited from earlier work
[2] = test system: osteopontin, osteocalcin and bone sialoprotein expression in HPDL cells; test: Semi-quantitative PCR of mineralized tissue markers in cultured HPDL cells; format: cell-based, human; conditions: 4, 14 and 28 d cultured HPDL cells; H-2 25 μg/mL; TGF-β1 1 ng/mL
Source text: Total RNA was extracted using RNAzol™ B from cultured HPDL cells. […] The PCR primers were designed based upon the Homo sapiens mRNA sequences. The primer pairs were as follows: osteopontin, 5′-[…]-3′ (SEQ ID NO: 45) and 5′-[…] TGAA-3′ (SEQ ID NO: 46) (301 bp); osteocalcin, 5′-[…]-3′ (SEQ ID NO: 47) and 5′-[…] GAGGT-3′ (SEQ ID NO: 48) (304 bp); and bone sialo protein, 5′-[…]-3′ (SEQ ID NO: 49) and 5′-[…]-3′ (SEQ ID NO: 50) (448 bp). A primer set amplifying glyceraldehyde-3phosphate dehydrogenase mRNA was used as a control.
The cDNAs generated from HPDL cells […] the DNA Master SYBR Green I kit and protocol and a LightCycler instrument. The relative amount of each mRNA was determined at 50% levels of PCR product, and normalized with use of the relative amount of GAPDH mRNA.

[3] = test system: HPDL cells; test: Mineralization activity of HPDL cells (alizarin red S staining, calcium content); format: cell-based, human
Protocol: (§1) The HPDL cells were plated in 24-well plates at an initial density of 1×10^5 cells/well. After 24 h of incubation, the medium was replaced with growth medium containing 50 μM ascorbic acid, 10 mM β-glycerophosphate, and 10 nM 1α,25-dihydroxyvitamin D3 (differentiation medium) and 1 μg/ml of samples. The medium was changed every 72 h. The cells were maintained for 30 days and then the medium was discarded.
The compartments of cells were fixed in 100% methanol, stained with alizarin red S for 10 min, then washed with ultrapure water and photographed to examine the biomineralization activity. The staining solution was 1% alizarin red S (sodium alizarin sulfonate) (Sigma) dissolved in ultrapure water and adjusted to pH 6.4 with 0.1N ammonium hydroxide.
For measuring the calcium content, the compartments of cells were dissolved by 0.5N hydrochloric acid. The resulting solution was measured by a Calcium C-test kit and protocol (Wako Pure Chemical Industries Ltd, Osaka, Japan). The absorbance at 570 nm was read on a plate reader.
as §1, with “h and the” for “h. The”, “days. The biomineralization activity was examined by staining with alizarin red S” for “days”, “measuring calcium content.” for “then the medium was discarded.”
The HPDL cells were plated in six-well plates at an initial density of 1×10^5 cells per well. […]
For Alizarin Red S staining, the compartments of 28 d cultured cells were fixed in 100% methanol, stained with Alizarin Red S for 10 min, then washed with ultra-pure water and photographed. […] The resulting solution was measured using a Calcium C-test kit and protocol. The absorbance at 570 nm was read with a plate reader. […]

[4] = test system: human periodontal ligament (HPDL) cells; test: ALP inducing activity of HPDL cells on cell culture system; format: cell-based; conditions: for ALP inducing activity of HPDL cells (Example 4): peptides 50 μg/mL, TGF-β1 1 ng/mL, BMP-2 1 μg/mL
Source text: (§2) Human periodontal ligament (HPDL) cells were obtained according to the method of Somerman et al., (1988) from healthy premolars which were extracted from the patients for orthodontic reasons. The cells were precultured for 4-6 passages with a-MEM medium to establish the primary cell line. The cells were maintained in the alpha modification of Eagle's medium (α-MEM; Life Technologies, Grand Island, N.Y., USA) containing 10% fetal bovine serum (FBS; Asahi Technoglass, Chiba, Japan) and 1% antibiotics (100 U/ml of Penicillin-G and 100 μg/ml of Streptomycin sulfate; Gibco BRL, Grand Island, N.Y., USA) at 37° C. in a humidified 5% CO2 atmosphere. The ST2 cells (Riken Cell Bank, Tsukuba, Japan), an osteoblast-like mouse bone marrow stromal cell line, were cultured under the same conditions.
HPDL cells were distributed in 96-well plates at a density of approximately 5×10^5 cells per a well and incubated for 24 h. The growth medium was then changed to contain 10 nM of 1α-25dihydroxy-Vitamin D3 (CALBIOCHEM, La Jolla, Calif.) and 50 μg/ml (final concentration) of fractionated enamel protein samples or synthesized peptides dissolved in ultrapure water. After 96 additional hours of incubation, the cells were washed once with PBS, and ALP activity was determined after a 10 min incubation at 37° C. in 10 mM p-nitrophenylphosphate (substrate) in 100 mM 2-amino-2-methyl-1,3-propanediol-HCl buffer (pH 10.0) containing 5 mM MgCl2. After adding 0.2 M NaOH, which stopped the reaction, the absorbance at 405 nm was read on a plate reader.
HPDL cells of approximately 5×10^5 cells per well were distributed in 96-well plates and incubated for 24 h. The growth medium was then changed to contain 10 nM of 1α-25dihydroxy-Vitamin D3 and 50 μg/ml (final concentration) of purified sheath protein or synthesized peptide. After 96 additional hours of incubation, ALP activity was determined using p-nitrophenylphosphate as a substrate.
The bioactivities of these synthetic peptides were tested their cytodifferentiation activity of HPDL cells and ST2 cells by determination of increasing ALP inducing activity on cell culture system. When these peptides applied in cell culture system, the concentration of their peptides was employed around 1 ng/ml. In the case of TGF-1, the concentration was 10 ng/ml.
Normal human periodontal ligament fibroblasts were maintained in an α-minimal essential medium (α-MEM) containing 10% fetal bovine serum, either with or without 10 nM 1α-25dihydroxy-vitamin D3 and 1% antibiotics (100 U/mL of penicillin G and 100 μg/mL of streptomycin sulfate) at 37° C. in a humidified atmosphere of air containing 5% CO2. Another cell line, ST2 cells, was obtained from an osteoblast-like mouse bone marrow stromal cell line. These cells were cultured in the same conditions as those described above.
The ALP inducing activities of synthetic peptides using the cell culture of HPDL cells and ST2 cells were examined. The HPDL cells were distributed in 96-well plates at a density of approximately 5×10^5 cells per well and incubated for 24 h. The medium was then changed to α-MEM containing 10 nM of 1α-25dihydroxy-vitamin D3 and either synthetic peptides or growth factors dissolved in ultra-pure water. After 96 h of incubation, the cells were washed once with phosphate-buffered saline, and 10 mM ρ-nitrophenylphosphate in 100 mM 2-amino-2-methel-1,3-propanediol-HCl buffer (pH 10.0) containing 5 mM MgCl2 was added. The ALP activity was determined after 10 min incubation at 37° C. and the absorbance at 405 nm was read using a plate reader, after adding 0.2 M NaOH to stop the reaction. […] When the synthetic peptides were applied in the cell culture system, their final concentrations were 25 or 50 μg/mL. A TGF-β1 receptor inhibitor (SB431542, 10 μM) was applied to the HPDL cell culture system to examine their influence relative to the ALP inducing activity of the synthetic peptides.

[5] = test system: buccal dehiscence type bone defects created along the roots of the canine mandibular premolars; test: Cementum regeneration (CR) activity, eight-week histological analysis on buccal dehiscence model of dogs; format: in vivo, beagle dogs; conditions: histological analysis eight weeks after application; buccal dehiscence model of dogs
Protocol: Approximately 2-year-old male beagle dogs (approximate 15 kg) were used to detect the CR activities after the applications of several enamel protein samples. They had intact dentition and a healthy periodontium. The surgical preparation of buccal dehiscence type bone defects was carried out according to the modified method of Hammarström (1997) under general anesthesia induced and maintained by an endotracheal tube with 1.5-2.0% of halothane (Takeda Yakuhin Co. LTD, Osaka, Japan) in 100% oxygen, after premedicated with intramuscular injection of the mixture of Ketamine HCl (9.8 mg/kg: Sankyo Co. LTD, Tokyo, Japan) and Xylazine HCl (0.7 mg/kg: Bayer Co. LTD, Tokyo, Japan).
Contralateral buccal mucoperiosteal flaps were raised after an intracrevicular incision extending from the first mandibular premolar to the first mandibular molar. After the removing the buccal alveolar bone plate covering the mesial root of the second premolars, the exposed periodontal ligament and cementum of these areas were completely removed by means of a dental bur. At the apical end of the defect, a notch was created to identify the apical extension of the defect, when histological analyses. The distance between the cervical margin and the apical end of the defect was standardized at about 5 mm. The exposed root dentin surfaces were conditioned for 2 min with cotton pellets soaked in a 19% EDTA solution, and then carefully rinsed with sterile saline. Then 50 μg of each enamel protein sample in 100 μl of cold sterile distilled water was applied over the entire buccal surface area of the exposed roots. Finally, the mucoperiosteal flaps were repositioned to their level prior to surgery and sutured. Distilled water was used as a negative control and EMDOGAIN® (BIORA AB, Malmö, Sweden) served as a positive control.
After 8 weeks the dogs were terminated by anesthetization with sodium pentobarbital. Their heads were fixed by perfusion with 0.1 M sodium cacodylate buffer (pH 7.4) containing 4% paraformaldehyde and 1% glutaraldehyde. Tissue blocks, which included teeth, bone, and tissue were dissected and demineralized in 10% formic acid containing 0.06 M sodium citrate and 0.1 M citric acid. All specimens were dehydrated using a graded series of alcohols and then embedded in paraffin. Serial sections (5 μm thick) were made and stained with hematoxylin/eosin for examination by light microscopy.
The length and thickness of cementums regenerated after application of fractionated and purified enamel protein samples and EMD were measured on the computer monitor of histological results. The length of the regenerated cementum was straight distance between the apical end of the defect and coronal extention of the new cementum, as well as to the crest of the new alveolar bone. Also, the thickness of cementum was measured at coronal end, apical end and between them.
CR promoting activity of enamel proteins obtained at each extracted and purified step were examined by eight-week histological analysis of buccal dehiscence type bone defects created along the roots of canine mandible (FIG. 1).

[6] = test system: ST2 cells; test: ALP inducing activity of ST2 cells on cell culture system; format: cell-based, mouse; conditions: 50 μg/ml protein or peptide; TGF-β1 50 ng/ml, BMP-2 500 ng/ml
Source text: as §2
HPDL cells of approximately 5×10^5 cells per well were distributed in 96-well plates and incubated for 24 h. […] After 96 additional hours of incubation, ALP activity was determined using p-nitrophenylphosphate as a substrate. […]
The ALP inducing activities of synthetic peptides using the cell culture of HPDL cells and ST2 cells were examined. […] The ALP activity was determined after 10 min incubation at 37° C. and the absorbance at 405 nm was read using a plate reader, after adding 0.2 M NaOH to stop the reaction. […]

[7] = 10 nM 1α-25dihydroxy-vitamin D3, 96 h

| Substance | ALP inducing activity among porcine ESP synthetic peptides (previous study) [1] | expressions of osteopontin, osteocalcin and bone sialoprotein [2] | mineralization by HPDL cells (Example 4) ([3]; 28 d cell culture, H-2 25 μg/mL, TGF-β1 1 ng/mL) | induction of mineralization of HPDL cells (Example 3) ([3]; 30 days culture, 1 μg/ml of samples, differentiation medium) | ALP inducing activity of HPDL cells (Example 4) [4, 7] | ALP activity of HPDL cells (human synthetic peptides, Example 3) ([4]; peptides around 1 ng/ml, TGF-β1 10 ng/ml) | CR (cementum regeneration) activity [5] | ALP activity of ST2 cells (porcine sheath proteins and synthetic peptides) [6] | ALP inducing activity of HPDL cells when adding TGF-β1 receptor inhibitor SB431542 ([4]; 10 μM SB431542, 10 nM 1α-25dihydroxy-vitamin D3) | ALP activity of HPDL cells (porcine sheath proteins and synthetic peptides) ([4]; 50 μg/ml protein or peptide, TGF-β1 50 ng/ml, BMP-2 500 ng/ml, 10 nM 1α-25dihydroxy-Vitamin D3, 96 h) | concentration for increasing ALP inducing activity of HPDL cells, molar ([4]; calculated from molecular weight (TGF-β1 25 kDa; peptides average 1.5 kDa)) [nM/liter] | apt concentration for increasing ALP inducing activity of HPDL cells ([4]; cell culture system) |
| --- | --- | --- | --- | --- | --- | --- | --- | --- | --- | --- | --- | --- |
| QVEGPMVQQQVAPSEK (16 aa from 131 to 146 in sequence 10; listed as Sus scrofa) [P-1] | highest ALP inducing activity among all the porcine ESP synthetic peptides tested |  |  |  |  |  |  |  |  |  |  |  |
| SDKPPKPELPGVDF (14 aa from 144 to 157 in sequence 11; listed as Homo sapiens) [H-2] |  | closely similar to those of TGF-β1 | induced mineralization | enhanced the induction of mineralization | highest ALP inducing activity | enhanced dose dependently |  |  |  |  |  |  |
| TGF-β1: recombinant growth factor, positive control [reference compound] |  |  |  |  | enhanced in a dose-dependent manner; also recorded: increased |  | shown to have the same activity | not stimulated | inhibited distinctly | further increased | 0.4 | around 10 ng/ml |
